Laboratory results published in ChEMBL document CHEMBL1799959, “Cyathane diterpenes from Chinese mushroom Sarcodon scabrosus and their neurite outgrowth-promoting activity” (2011).
Calls of active or inactive are those of the source. No cut-off for these calls is given here.

Assays:
[1] = test system: PC-12; assay: Neuritogenic activity in rat PC12 cells in serum free medium assessed as potentiation of NGF-induced neurite outgrowth at 25 uM after 24 hrs by light microscopy in presence of 20 ng/ml NGF; assay type: functional
[2] = test system: PC-12; assay: Neuritogenic activity in rat PC12 cells in serum free medium assessed as neurite outgrowth at 25 uM after 24 hrs by light microscopy; assay type: functional, cell-based
[3] = test system: PC-12; assay: Neuritogenic activity in rat PC12 cells in serum free medium assessed as potentiation of NGF-induced neurite outgrowth at 25 uM after 24 hrs by light microscopy in presence of 20 ng/ml NGF relative to NGF; assay type: functional, cell-based

| SMILES | Activity [1] | Activity [2] | Activity [3] |
| --- | --- | --- | --- |
| C[C@@H](CO)C1=C2[C@H]3C[C@H](O)C(COC(=O)c4ccccc4)=C[C@H](O)[C@]3(C)CC[C@@]2(C)CC1 | inactive | inactive |  |
| C[C@@H](CO)C1=C2[C@H]3C[C@H](O)C(COC(=O)c4ccccc4)=C[C@H](O)[C@]3(C)CC[C@@]2(CO)CC1 | inactive | inactive |  |
| CC(C)C1=C2[C@H]3C[C@@H](OC(=O)c4ccccc4)C(COC(=O)c4ccccc4)=C[C@H](O)[C@]3(C)CC[C@@]2(C(=O)O)CC1 | inactive | inactive |  |
| C[C@H](CO)C1=C2C3=CC=C(C=O)C[C@H](O)[C@]3(C)CC[C@@]2(C)CC1 [SARCODONIN A] | 20% | inactive | Active |
| CC(=O)OC[C@@H](C)C1=C2[C@H]3CC=C(C=O)CC(=O)[C@]3(C)CC[C@@]2(C)CC1 | inactive | inactive |  |
| C[C@@H](CO)C1=C2[C@H]3CC=C(C=O)CC(=O)[C@]3(C)CC[C@@]2(CO)CC1 | inactive | inactive |  |
| C[C@H](CO)C1=C2[C@H]3CC=C(C=O)CC(=O)[C@]3(C)CC[C@@]2(C)CC1 [SARCODONIN G] | 24.9% | inactive | Active |
